# From the NIST ThermoML archive (doi:10.1021/acs.jced.6b00552)
# ± gives the expanded uncertainty stated by the source.
# Legend:
# [1] = Molar enthalpy of transition or fusion; conditions: Crystal; DSC
# [2] = Crystal; DSC
SMILES,Molar enthalpy of transition or fusion [1] [kcal/mol],Triple point temperature [2] [K]
C[C@@H]1O[C@@H](O[C@H]2[C@H](Oc3cc(O)c(C(=O)CCc4ccc(O)cc4)c(O)c3)O[C@H](CO)[C@@H](O)[C@@H]2O)[C@H](O)[C@H](O)[C@H]1O [naringin dihydrochalcone],7.08 ± 0.454,432.22 ± 1.2
"O=C(CCc1ccc(O)cc1)c1c(O)cc(O)cc1O [3-(4-hydroxyphenyl)-1-(2,4,6-trihydroxyphenyl)propan-1-one]",13.5 ± 0.837,542.96 ± 1.2
